Measured values: ChEMBL document CHEMBL3769391, “Identification of a new cyathane diterpene that induces mitochondrial and autophagy-dependent apoptosis and shows a potent in vivo anti-colorectal cancer activity” (Eur J Med Chem, 2016)
Activity calls are given as the source filed them. The rule behind the calls is not given here.

Tests used:
HCT-116 [1] = experiment: Induction of apoptosis in human HCT116 cells assessed as changes in p53 expression at 5 uM after 6 to 24 hrs by Western blot analysis; type: functional, cell-based
HCT-116 [2] = experiment: Induction of apoptosis in human HCT116 cells assessed as cytochrome C release from mitochondria to cytoplasm at 5 uM after 12 hrs by immunofluorescence assay; type: functional
HCT-116 [3] = experiment: Induction of apoptosis in ATG5 scramble human HCT116 cells assessed as early apoptotic cells at 5 uM after 24 hrs by Annexin V-FITC/propidium iodide staining based flow cytometry (reference value: 1.99%); type: functional
HCT-116 [4] = experiment: Induction of apoptosis in human HCT116 cells assessed as changes in Bcl-X(L) expression at 5 uM after 6 to 24 hrs by Western blot analysis; type: functional, cell-based
HCT-116 [5] = experiment: Induction of chloroquine-induced autophagic flux in human HCT116 cells assessed as increase in LC3-2 level at 5 uM by Western blot analysis; type: functional, cell-based
Mus musculus [6] = experiment: Hepatotoxicity in immune deficient nude BALB/c mouse xenografted with human HCT116 cells assessed as changes in total protein level in serum at 5 and 10 mg/kg, ip administered every other day for 2 weeks measured during compound dosing; type: toxicity, organism-based, HCT-116; conditions: in vivo, 336 h
[7] = Cytotoxicity against Bax deficient human HCT116 cells assessed as reduction in cell viability after 24 hrs by MTT assay; type: functional, cell-based; conditions: HCT-116, 24 h
HCT-116 [8] = experiment: Induction of apoptosis in Bax deficient human HCT116 cells assessed as late apoptotic cells at 10 uM after 24 hrs by Annexin V-FITC/propidium iodide staining based flow cytometry (reference value: 1.5%); type: functional
HCT-116 [9] = experiment: Induction of Bcl-2 expression in human HCT116 cells at 5 uM after 4 to 12 hrs by qRT-PCR method; type: functional, cell-based
HCT-116 [10] = experiment: Induction of apoptosis in human HCT116 cells assessed as viable cells at 5 uM after 24 hrs by Annexin V-FITC/propidium iodide staining based flow cytometry in presence of NAC (reference value: 93.64%); type: functional; conditions: HCT-116, 24 h, read-out: Activity
HCT-116 [11] = experiment: Induction of apoptosis in human HCT116 cells assessed as increase in ATG5 expression at 5 uM after 4 to 12 hrs by Western blot analysis; type: functional, cell-based
Mus musculus [12] = experiment: Hepatotoxicity in immune deficient nude BALB/c mouse xenografted with Bax deficient human HCT116 cells assessed as changes in total protein level at 5 and 10 mg/kg, ip administered every other day for 2 weeks measured during compound dosing; type: toxicity, organism-based, HCT-116; conditions: in vivo, 336 h
Mus musculus [13] = experiment: Toxicity in immune deficient nude BALB/c mouse xenografted with human HCT116 cells assessed as changes in body weight at 5 and 10 mg/kg, ip administered every other day for 2 weeks measured during compound dosing; type: organism-based, HCT-116; conditions: in vivo, 336 h
HCT-116 [14] = experiment: Induction of apoptosis in human HCT116 cells assessed as early apoptotic cells at 2.5 uM after 24 hrs by Annexin V-FITC/propidium iodide staining based flow cytometry (reference value: 1.06%); type: functional
HCT-116 [15] = experiment: Induction of apoptosis in Bax deficient human HCT116 cells after 24 hrs by Annexin V-FITC/propidium iodide staining based flow cytometry; type: functional, cell-based
HCT-116 [16] = experiment: Induction of apoptosis in human HCT116 cells assessed as changes in Beclin-1 expression at 5 uM after 4 to 12 hrs by Western blot analysis; type: functional, cell-based
HCT-116 [17] = experiment: Induction of apoptosis in Bax deficient human HCT116 cells assessed as late apoptotic cells at 15 uM after 24 hrs by Annexin V-FITC/propidium iodide staining based flow cytometry in presence of NAC (reference value: 1.56%); type: functional
Mus musculus [18] = experiment: Toxicity in immune deficient nude BALB/c mouse xenografted with human HCT116 cells assessed as discomfort behavioral changes at 5 and 10 mg/kg, ip administered every other day for 2 weeks measured during compound dosing; type: organism-based, HCT-116; conditions: in vivo, 336 h
[19] = Antitumor activity against human HCT116 cells xenografted in immune deficient nude BALB/c mouse assessed as tumor growth inhibition at 5 mg/kg, ip administered every other day for 2 weeks measured after 2 weeks post last dose relative to control; type: functional; conditions: HCT-116, ip, 336 h, read-out: TGI
HCT-116 [20] = experiment: Induction of apoptosis in human HCT116 cells assessed as viable cells at 5 uM after 24 hrs by Annexin V-FITC/propidium iodide staining based flow cytometry in presence of DTT (reference value: 93.64%); type: functional; conditions: HCT-116, 24 h, read-out: Activity
HCT-116 [21] = experiment: Induction of apoptosis in human HCT116 cells assessed as early apoptotic cells at 5 uM after 24 hrs by Annexin V-FITC/propidium iodide staining based flow cytometry in presence of NAC (reference value: 2.2%); type: functional
HCT-116 [22] = experiment: Induction of apoptosis in human HCT116 cells assessed as ATG5 cleavage by Western blot analysis in presence of Z-VAD-FMK; type: functional, cell-based
HCT-116 [23] = experiment: Induction of apoptosis in ATG5 scramble human HCT116 cells assessed as late apoptotic cells at 5 uM after 24 hrs by Annexin V-FITC/propidium iodide staining based flow cytometry (reference value: 3.35%); type: functional
HCT-116 [24] = experiment: Induction of apoptosis in Bax deficient human HCT116 cells assessed as early apoptotic cells at 15 uM after 24 hrs by Annexin V-FITC/propidium iodide staining based flow cytometry in presence of DTT (reference value: 0.85%); type: functional
Mus musculus [25] = experiment: Toxicity in immune deficient nude BALB/c mouse xenografted with Bax deficient human HCT116 cells assessed as discomfort behavioral changes at 5 and 10 mg/kg, ip administered every other day for 2 weeks measured during compound dosing; type: organism-based, HCT-116; conditions: in vivo, 336 h
HCT-116 [26] = experiment: Induction of apoptosis in Bax deficient human HCT116 cells assessed as early apoptotic cells at 5 uM after 24 hrs by Annexin V-FITC/propidium iodide staining based flow cytometry (reference value: 1.13%); type: functional
HCT-116 [27] = experiment: Induction of apoptosis in human HCT116 cells assessed as PARP cleavage at 5 uM after 6 to 24 hrs by Western blot analysis; type: functional, cell-based
HCT-116 [28] = experiment: Induction of apoptosis in human HCT116 cells assessed as ATG5 cleavage by Western blot analysis in presence of chloroquine; type: functional, cell-based
HCT-116 [29] = experiment: Induction of apoptosis in human HCT116 cells assessed as late apoptotic cells at 5 uM after 24 hrs by Annexin V-FITC/propidium iodide staining based flow cytometry (reference value: 3.73 to 4.54%); type: functional
[30] = Antitumor activity against Bax deficient human HCT116 cells xenografted in immune deficient nude BALB/c mouse assessed as tumor growth inhibition at 10 mg/kg, ip administered every other day for 2 weeks measured after 2 weeks post last dose relative to control; type: functional; conditions: HCT-116, ip, 336 h, read-out: TGI
HCT-116 [31] = experiment: Induction of apoptosis in human HCT116 cells assessed as late apoptotic cells at 10 uM after 12 hrs by Annexin V-FITC/propidium iodide staining based flow cytometry (reference value: 3.37%); type: functional
HCT-116 [32] = experiment: Induction of apoptosis in human HCT116 cells assessed as necrotic cells at 5 uM after 24 hrs by Annexin V-FITC/propidium iodide staining based flow cytometry in presence of NAC (reference value: 0.44%); type: functional
HCT-116 [33] = experiment: Induction of apoptosis in human HCT116 cells assessed as increase in BimEL expression at 5 uM after 6 to 24 hrs by Western blot analysis; type: functional, cell-based

CO[C@@H]1C(C=O)=CC[C@@H]2C3=C(C(C)C)CC[C@]3(C)CC[C@@]2(C)[C@H]1O
Activity (HCT-116 [1]): inactive | Activity (HCT-116 [2]): Active | Activity (HCT-116 [3]): 15.2% | Activity (HCT-116 [4]): inactive | Activity (HCT-116 [5]): Active | Activity (Mus musculus [6]): Non-toxic | IC50 [7]: 24.2 µM | Activity (HCT-116 [8]): 17.64% | Activity (HCT-116 [9]): Active | viability at 5 µM (HCT-116 [10]): 91.4% | Activity (HCT-116 [11]): Active | Activity (Mus musculus [12]): Non-toxic | Activity (Mus musculus [13]): Non-toxic | Activity (HCT-116 [14]): 2.23% | Activity (HCT-116 [15]): Dose-dependent effect | Activity (HCT-116 [16]): inactive | Activity (HCT-116 [17]): 2.07% | Activity (Mus musculus [18]): Non-toxic | inhibition in vivo at 5 mg/kg [19]: 26% | viability at 5 µM (HCT-116 [20]): 80.8% | Activity (HCT-116 [21]): 1.35% | Activity (HCT-116 [22]): inactive | Activity (HCT-116 [23]): 5.53% | Activity (HCT-116 [24]): 2.67% | Activity (Mus musculus [25]): Non-toxic | Activity (HCT-116 [26]): 6.35% | Activity (HCT-116 [27]): Active | Activity (HCT-116 [28]): inactive | Activity (HCT-116 [29]): 13.06% | inhibition in vivo at 10 mg/kg [30]: 60.1% | Activity (HCT-116 [31]): 22.01% | Activity (HCT-116 [32]): 0.81% | Activity (HCT-116 [33]): Active
